Laboratory results: US20240299698A1, “PREVENTION AND TREATMENT OF POST-OPERATIVE COGNITIVE DYSFUNCTION (POCD)” (Noetix Pharma LLC, priority 2022, published 2024)

Tests used:
[1] = tested on: mouse model of (POCD); assay: Novel object recognition testing in laparotomy mouse model of POCD; type: in vivo, Male C57BI/6 mice; details: for novel object preference, 24-hour (long term) testing: PSD6
From the text: (§1) To induce POCD, mice were anesthetized with isoflurane and maintained at a surgical plane of anesthesia (2-2.5%). The abdomen was shaved and cleaned/disinfected with both betadine and ethanol (70%). A 1.5 cm vertical incision was made along the midline of the abdomen, perforating the skin and the peritoneal cavity. A sterile blunt probe was inserted into the cavity, and the abdominal viscera and musculature were manipulated for five minutes. Abdominal muscles and skin were sutured, polysporin and topical lidocaine were applied to the incision site, and buprenorphine (0.1 mg/kg s.c.) was administered. Animals were placed into a clean, pre-warmed home cage for recovery and housed singly thereafter.
Novel object recognition (NOR) is a tool used to assess the ability of mice to differentiate between familiar and novel objects (i.e., recognition memory). The paradigm relies on the tendency of rodents to interact more with a novel object than a familiar one. In this task, acclimation to the test arena was provided on the day prior to training (PSD4) and the initial test trial (short-term recall), presented one hour following training on PSD5. The second test trial (long-term recall) was performed 24 hours later (PSD6). Object recognition may be determined through evaluation of the percent time spent exploring a novel object relative to the total time spent exploring both novel and familiar objects; normal animals will spend more time exploring a novel object. If the exploration of both objects is the same, this behavior can be a sign of a recognition memory deficit.
(§2) The acclimation process was as follows: 1. The animal was brought into the testing room in a transfer cage. 2. Video recording was begun and the animal's ID card was recorded. 3. The mouse was placed in the center of the arena and allowed to explore freely for 5 minutes. 4. The mouse was returned to its home cage.
as §2, with “paired object training” for “acclimation”, “10” for “5”
(§3) The novel object (1 hour) test was performed as follows: 1. The arena was prepared with one original object (block) and one novel object (ball) present. 2. The animal was brought into the testing room in a transfer cage. 3. Video recording was begun and the animal's ID card was recorded. 4. The mouse was placed in the center of the arena and allowed to explore for 10 minutes. 5. The mouse was returned to its home cage.
as §3, with “(24” for “(1”, “(dome)” for “(ball)”

[2] = tested on: mouse model of (POCD); assay: Morris water maze testing and probe trial in laparotomy mouse model of POCD; type: in vivo, Male C57BI/6 mice; details: PSD7
From the text: as §1
Morris water maze testing is a well-established method for evaluating spatial learning and memory. To navigate this maze, the mouse must use extra-maze cues to locate a hidden platform and escape from the water. Testing was performed on PSD7. Mice were given two blocks of four 60 sec trials to find the hidden platform, with latency to reach the platform compared between blocks as a measure of learning/memory processes. Swim speed was evaluated to assess locomotor capabilities. On PSD8 (i.e., 24 hours later), mice were reintroduced into the maze without the platform present for a one-minute probe trial to assess reference memory.
The testing protocol was as follows: 1. The animal was brought into the testing room in a transfer cage. 2. Video recording was begun and the animal's ID card recorded. 3. The mouse was gently placed (i.e., not dropped) into the water at the appropriate start location (N, S, E, or W) facing the pool wall. 4. For 60 seconds, the mouse was allowed to locate and climb onto the submerged platform. If the mouse was unable to locate the platform within the allotted time, it was gently guided there and assigned a score of 61 seconds. 5. The mouse was allowed 60 seconds to recover on the platform and observe the extra-maze cues. If the moused jumped into the water, it was immediately retrieved and placed back on the platform for the remaining duration of the inter-trial interval. 6. Steps 3-5 were repeated for a total of 4 trials (Block 1). 7. The mouse was returned to the transfer cage lined with a dry towel. It was allowed 5 minutes to rest. 8 Steps 3-5 were repeated for a total of 4 trials (Block 2). 9. The mouse was gently dried and returned to its home cage.
The probe session was conducted as follows: 1. The animal was brought into the testing room in a transfer cage. 2. Video recording was begun and the animal's ID card recorded. 3. The mouse was gently placed (i.e., not dropped) into the water at the appropriate start location (N, S, E, or W) facing the pool wall. 4. The mouse was allowed to swim freely for 60 seconds. 5. The mouse was gently dried and returned to its home cage.

**Q.** What does the source list for `Cc1ccc(=O)n(-c2ccccc2)c1` [pirfenidone, 5-methyl-1-phenyl-2-(1H)-pyridone]?
**A.** preference index, within-group 1-hour vs 24-hour ([1]; Acute, p=0.762, paired t-test (statistically equivalent)): retained memory for the familiar object; preference index, within-group 1-hour vs 24-hour ([1]; Chronic, p=0.828, paired t-test (statistically equivalent)): retained memory for the familiar object; total object exploration time, 1 hour test compared with training ([1]; PSD5, Acute, p=0.01, within group paired t-test): decrease in total time spent interacting with objects; total object exploration time, 1 hour test compared with training ([1]; PSD5, Chronic, p=0.04, within group paired t-test): decrease in total time spent interacting with objects; novel object preference, 1-hour (short term) testing, between groups ([1]; PSD5, all treatment groups, p=0.376, one-way ANOVA): no main effect for treatment; novel object preference, 24-hour (long term) testing ([1]; Acute vs Disease Controls, p=0.08, LSD post-hoc): trend toward increased preference; novel object preference, 24-hour (long term) testing ([1]; Chronic vs Disease Controls, p=0.09, LSD post-hoc): trend toward increased preference; latency to platform, overall (block x treatment) ([2]; Acute vs Disease Controls, p=0.028): statistically significant decrease in latency to platform; latency to platform, Block 1 ([2]; Acute vs Disease Controls, p=0.04, Tukey's HSD): found the platform faster than Disease Controls only; decrease in time to platform between blocks (spatial memory) ([2]; Acute, p=0.61, paired t-test): not seen; latency to platform, Block 1 ([2]; Chronic compared to both Disease and Normal Controls, p=0.02 and p=0.03, Tukey's HSD): statistically significant decrease in latency to platform; latency to platform, overall (block x treatment) ([2]; Chronic vs Disease Controls, p=0.052): statistically significant decrease in latency to platform; decrease in time to platform between blocks (spatial memory) ([2]; Chronic, p=0.54, paired t-test): not seen; latency to platform, Block 2, between groups ([2]; all groups, p=0.117, one-way ANOVA): no between groups main effect
